Experimental data taken from article PMC9027131, “Dual PI3K/Akt Inhibitors Bearing Coumarin-Thiazolidine Pharmacophores as Potential Apoptosis Inducers in MCF-7 Cells” (Pharmaceuticals, 2022).
Like-named read-outs stand apart in the source and are kept apart here.

Tests used:
[1] = test system: MCF-7 cells; test: MTT cytotoxicity assay in MCF-7 cells; type: cell-based, human; settings: means ± sd, n = 3
Procedure: The in vitro anticancer activity of the designed coumarin-thiosemicarbazones and coumarin-thiazolidine-4-one hybrids against MCF-7 cells was tested using the MTT assay, and 5-fluorouracil (5-FU) was used as the reference drug. The tested compounds were used in different concentrations, and cell survival was determined after incubation for 48 h as reported. The cytotoxic activity is represented in Table 1 as IC50 (µM) values.
(§1) MCF-7 breast cancer cell line (ATCC® HTB-22™) plus non-tumorigenic epithelial cell line (MCF 10, ATCC® CRL-10317™) were supplied from VACSERA (Cairo, Egypt) and cultured in Dulbecco’s Modified Eagle Medium (Invitrogen-Life Technologies, Carlsbad, CA, USA) with 1% antibiotic solution (streptomycin–penicillin) plus 10% fetal bovine serum (Hyclone) in a 5% (v/v) humidified CO2 incubator at 37 °C.
Firstly, cells were kept in a humidified atmosphere (37 °C, 24 h), and then incubated with serial concentrations of the tested compounds. After 48 h, the medium was aspirated, and then cells were incubated with 5% MTT solution (M-5655; Sigma Aldrich, St. Louis, MO USA) (200 µL/well, 2 h), allowing the dye to metabolize into the colored insoluble formazan complex that was then dissolved in the appropriate solubilization solution (M-8910) (200 µL/well), for 30 min with gentle mixing at room temperature. The UV absorbance was measured using a microplate reader (570 nm), and cell viability was determined with respect to untreated control cells. […] The values were means ± sd; n = 3.

[2] = test system: MCF-7 cells; test: Cell cycle analysis by flow cytometry (propidium iodide); type: cell-based, human; settings: MCF-7, treated at IC50, 48 h
Procedure: VIIb-treated cells were subjected to cell cycle phase distribution analysis as well as apoptosis rates determination by flow cytometric analysis in MCF-7 cells, as reported.
Control and VIIb-treated (IC50 µM, 48 h) MCF-7 cells were harvested and then subjected to cell cycle analysis by flow cytometry.
Cell cycle analysis and apoptosis rates following VIIb treatment were investigated using a Propidium Iodide Flow Cytometry Kit (ab139418; Abcam, Cambridge, UK) and Annexin V-FITC apoptosis kit (Catalog: K101-25; BioVision Research Products, San Francisco, CA, USA), respectively, following the manufacturer’s instructions as stated by a previous study.

[3] = test system: PI3K δ; settings: cited from earlier work
[4] = test system: PI3K β; settings: Figure 1, pan PI3K inhibitor; cited from earlier work
[5] = test system: PI3K α; settings: cited from earlier work
[6] = test system: MCF 10 non-tumorigenic epithelial cell line; test: MTT assay in non-cancerous epithelial cells (MCF 10); type: cell-based; settings: for IC50: Homo sapiens, MCF10, MTT assay, non-cancerous epithelial cells, means ± sd, n = 3; for Selectivity Index MCF-10/MCF-7: ratio of IC50 MCF-10 to IC50 MCF-7
Procedure: as §1
Firstly, cells were kept in a humidified atmosphere (37 °C, 24 h), and then incubated with serial concentrations of the tested compounds. After 48 h, the medium was aspirated, and then cells were incubated with 5% MTT solution (M-5655; Sigma Aldrich, St. Louis, MO USA) (200 µL/well, 2 h), allowing the dye to metabolize into the colored insoluble formazan complex that was then dissolved in the appropriate solubilization solution (M-8910) (200 µL/well), for 30 min with gentle mixing at room temperature. The UV absorbance was measured using a microplate reader (570 nm), and cell viability was determined with respect to untreated control cells.

[7] = target: T1, Akt-1 (Homo sapiens, UniProt P31749); test: Akt Kinase Activity assay kit; type: biochemical; settings: means ± sd, n = 3; read-out: IC50 (µM) Akt-1 Isoform
T1 construct: purchased Abcam ab139436
T1 sequence (P31749 whole entry, species assumed, canonical isoform): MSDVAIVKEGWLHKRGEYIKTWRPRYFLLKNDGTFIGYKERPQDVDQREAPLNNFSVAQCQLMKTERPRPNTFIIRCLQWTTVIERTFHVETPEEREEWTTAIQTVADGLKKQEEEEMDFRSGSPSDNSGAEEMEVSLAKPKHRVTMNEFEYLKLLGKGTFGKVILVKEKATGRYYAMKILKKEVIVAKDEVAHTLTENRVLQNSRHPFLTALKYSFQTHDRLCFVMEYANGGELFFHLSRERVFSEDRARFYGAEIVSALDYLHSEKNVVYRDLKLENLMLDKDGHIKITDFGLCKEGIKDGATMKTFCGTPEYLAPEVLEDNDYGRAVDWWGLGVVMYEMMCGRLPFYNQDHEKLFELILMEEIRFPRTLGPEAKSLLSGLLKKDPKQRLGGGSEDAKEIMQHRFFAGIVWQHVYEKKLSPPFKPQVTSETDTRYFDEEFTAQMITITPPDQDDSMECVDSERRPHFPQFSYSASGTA
Description: Accumulating evidence highlighted that PI3K signaling pathway upregulation is highly implicated in breast cancer development and disease progression as well as resistance to hormones and cytotoxic therapy. Therefore, it is essential to elucidate the effect of the novel compound, VIIb, on the PI3K/Akt signaling pathway by using in vitro PI3K class 1A enzyme inhibition assay conducted on PI3K-α and PI3K-γ isoforms as well as an Akt-1 enzyme inhibition assay. […] Furthermore, targeting the PI3K-γ isoform in breast cancer could contribute to enhancing the anti-tumor immunity.
The in vitro inhibition of PI3K and Akt kinase activities by VIIb was assessed using a PI3Kα (p110α/p85) assay kit (Catalog #79781; BPS Bioscience, Inc, San Diego, CA, USA), PI3Kγ (p110γ/PIK3R5) assay kit (Catalog #79803; BPS Bioscience, Inc, San Diego, CA, USA), and Akt Kinase Activity assay kit (ab139436; Abcam, Cambridge, UK) following the manufacturer’s instructions as described previously. The results were expressed as IC50 values using dose–response curves and linear regression equations. LY294002 compound was taken as the reference compound. The values were means ± sd; n = 3.

[8] = test system: Akt; settings: Figure 1, reported Akt inhibitor; cited from earlier work

Compound `CCOc1ccc2c(C)cc(=O)oc2c1C(C)=NN=C1SCC(=O)N1C` (mixture of isomers) [VIIIa, (Z/E)-2-{[1-(7-Ethoxy-4-methylcoumarin-8-yl)-ethylidene]-hydrazono}-3-methyl-thiazolidin-4-one] has an IC50 ([1]; 48 h) of 20.3 ± 1.06 µM.
In the case of `CCOc1ccc2c(C)cc(=O)oc2c1C(C)=NN=C1SCC(=O)N1CC` (mixture of isomers) [VIIIb, (Z/E)-2-{[1-(7-Ethoxy-4-methylcoumarin-8-yl)-ethylidene]-hydrazono}-3-ethyl-thiazolidin-4-one], the IC50 ([1]; 48 h) is reported as 57.3 ± 2.99 µM, the “DNA Content % Pre G1” value ([2]; control 1.55) is reported as 35.25% and the “DNA Content % G2/M” value ([2]; control 9.71) is reported as 5.59%. The “DNA Content % S” value ([2]; control 36.58) was 46.02% and the “DNA Content % G0/G1” value ([2]; control 53.71) was 48.39%.
For `C=CCN1C(=O)CSC1=NN=C(C)c1c(OCC)ccc2c(C)cc(=O)oc12` (mixture of isomers) [VIIIc, (Z/E)-3-Allyl-2-{[1-(7-ethoxy-4-methylcoumarin-8-yl)-ethylidene]-hydrazono}-thiazolidin-4-one], the IC50 ([1]; 48 h) was 4.95 ± 0.26 µM.
With `CCOc1ccc2c(C)cc(=O)oc2c1C(C)=NN=C1SCC(=O)N1Cc1ccccc1` (mixture of isomers) [VIIId, (Z/E)-3-Benzyl-2-{[1-(7-ethoxy-4-methylcoumarin-8-yl)-ethylidene]-hydrazono}-thiazolidin-4-one] the IC50 ([1]; 48 h) was 79.9 ± 4.18 µM.
Compound `CCOc1ccc2c(C)cc(=O)oc2c1C(C)=NN=C1SCC(=O)N1C(=O)c1ccccc1` (mixture of isomers) [VIIIe, (Z/E)-3-Benzoyl-2-{[1-(7-ethoxy-4-methylcoumarin-8-yl)-ethylidene]-hydrazono}-thiazolidin-4-one] has an IC50 ([1]; 48 h) of 26.4 ± 1.38 µM.
For `COc1ccc(-c2nc(N/N=C/c3c[nH]c4ccccc34)nc(N3CCOCC3)c2C#N)cc1` [Compound 1], the IC50 ([3]; Figure 1, pan PI3K inhibitor) is given as 0.64 µM, the IC50 [4] is given as 0.94 µM and the IC50 ([5]; Figure 1, pan PI3K inhibitor, read-out: IC50 (α)) is given as 0.96 µM.
In the case of `O=c1[nH]cc(F)c(=O)[nH]1` [Compound 5-FU, 5-fluorouracil, reference compound], the IC50 ([1]; Homo sapiens, MCF7, 48 h) is reported as 27.8 ± 1.41 µM, the IC50 [6] is reported as 36.2 ± 1.89 µM and the “Selectivity Index MCF-10/MCF-7” value [6] is reported as 1.30.
With `O=c1cc(N2CCOCC2)oc2c(-c3ccccc3)cccc12` [LY294002, reference compound] the IC50 [7] was 3.53 ± 0.18 µM.
In the case of `NC1(c2ccc(-c3nc4ccn5c(=O)[nH]nc5c4cc3-c3ccccc3)cc2)CCC1` [MK-2206], the IC50 [8] is given as 0.008 µM.
Compound `CCOc1ccc2c(C)cc(=O)oc2c1/C(C)=N\NC(=S)NC` [VIa, (Z/E)-1(1-(7-ethoxy-4-methylcoumarin)ethylidene)-4-methyl-thiosemicarbazone] has an IC50 ([1]; Homo sapiens, MCF7, 48 h) of 11.1 ± 0.58 µM and a melting point of 202 to 204 °C.
Work on `CCNC(=S)N/N=C(/C)c1c(OCC)ccc2c(C)cc(=O)oc12` [VIb, (Z/E)-1(1-(7-ethoxy-4-methylcoumarin)ethylidene)-4-ethyl-thiosemicarbazone] yielded an IC50 ([1]; Homo sapiens, MCF7, 48 h) of 38.7 ± 2.09 µM and a melting point of 183 °C.
With `C=CCNC(=S)N/N=C(/C)c1c(OCC)ccc2c(C)cc(=O)oc12` [VIc, (Z/E)-1(1-(7-ethoxy-4-methylcoumarin)ethylidene)-4-allyl-thiosemicarbazone] the IC50 ([1]; Homo sapiens, MCF7, 48 h) was 2.72 ± 0.13 µM and the melting point was 100 to 102 °C.
`CCOc1ccc2c(C)cc(=O)oc2c1/C(C)=N\NC(=S)NCc1ccccc1` [VId, (Z/E)-1(1-(7-ethoxy-4-methylcoumarin)ethylidene)-4-benzyl-thiosemicarbazone] showed an IC50 ([1]; Homo sapiens, MCF7, 48 h) of 2.61 ± 0.14 µM and a melting point of 140 to 143 °C.
In the case of `CCOc1ccc2c(C)cc(=O)oc2c1/C(C)=N\NC(=S)NC(=O)c1ccccc1` [VIe, (Z/E)-1(1-(7-ethoxy-4-methylcoumarin)ethylidene)-4-benzoyl-thiosemicarbazone], the IC50 ([1]; Homo sapiens, MCF7, 48 h) is reported as 43.1 ± 2.25 µM and the melting point is reported as 220 to 223 °C.
For `CCOc1ccc2c(C)cc(=O)oc2c1/C(C)=N\NC(=S)Nc1ccc(OC)cc1` [VIf], the IC50 ([1]; Homo sapiens, MCF7, 48 h) was 1.21 ± 0.06 µM, the IC50 [6] was 20.1 ± 1.05 µM and the “Selectivity Index MCF-10/MCF-7” value [6] was 16.61.
Compound `C/C(=N/NC(=S)NCc1ccccc1)c1c(O)ccc2c(C)cc(=O)oc12` [Va] has an IC50 ([1]; Homo sapiens, MCF7, 48 h) of 5.13 ± 0.28 µM.
Work on `C/C(=N/NC(=S)NC(=O)c1ccccc1)c1c(O)ccc2c(C)cc(=O)oc12` [Vb] yielded an IC50 ([1]; Homo sapiens, MCF7, 48 h) of 47.3 ± 2.47 µM.
